# Data published in patent publication US6632817B2, “Fluoromethoximino compounds” (priority 1997, dated 2003).
# Legend:
# [1] = tested on: Puccinia recondite; experiment: Puccinia test (wheat)/curative; assay type: in vivo; conditions: curative, application rate 250 g/ha, evaluation 10 days after inoculation
# Protocol: Puccinia Test (Wheat)/Curative
# (§1) Solvent: 25 parts by weight of N,N-dimethylacetamide
# (§2) Emulsifier: 0.6 part by weight of alkylaryl polyglycol ether
# (§3) To produce a suitable preparation of active compound, 1 part by weight of active compound is mixed with the stated amounts of solvent and emulsifier, and the concentrate is diluted with water to the desired concentration.
# To test for curative activity, young plants are sprayed with a conidia suspension of Puccinia recondite. The plants remain in an incubation cabin at 20° C. and 100% relative atmospheric humidity for 48 hours. The plants are subsequently sprayed with the preparation of active compound at the stated application rate.
# The plants are placed in a greenhouse at a temperature of approximately 20° C. and a relative atmospheric humidity of approximately 80% to promote the development of rust pustules.
# (§4) Evaluation is carried out 10 days after the inoculation. 0% means an efficacy which corresponds to that of the control, whereas an efficacy of 100% means that no infection is observed.
# [2] = tested on: Plasmopara viticola; experiment: Plasmopara test (grapevine)/protective; assay type: in vivo; conditions: Plasmopara viticola, 144 h, protective, application rate 100 g/ha, evaluation 6 days after inoculation, read-out: Efficacy in %
# Protocol: Plasmopara Test (Grapevine)/Protective
# (§5) Solvent: 47 parts by weight of acetone
# (§6) Emulsifier: 3 parts by weight of alkylaryl polyglycol ether
# as §3
# To test for protective activity, young plants are sprayed with the preparation of active compound at the stated application rate. After the spray coating has dried on, the plants are inoculated with an aqueous spore suspension of Plasmopara viticola and then remain in an incubation cabin at approximately 20° C. and 100% relative atmospheric humidity for 1 day. The plants are subsequently placed in a greenhouse at approximately 21° C. and approximately 90% relative atmospheric humidity for 5 days. The plants are then moistened and placed in an incubation cabin for 1 day.
# Evaluation is carried out 6 days after the inoculation. 0% means an efficacy which corresponds to that of the control, whereas an efficacy of 100% means that no infection is observed.
# [3] = tested on: Venturia inaequalis; experiment: Venturia test (apple)/protective; assay type: in vivo; conditions: Venturia inaequalis, 288 h, protective, application rate 10 g/ha, evaluation 12 days after inoculation, read-out: Efficacy in %
# Protocol: Venturia Test (Apple)/Protective
# as §5, §6, §3
# To test for protective activity, young plants are sprayed with the preparation of active compound at the stated application rate. After the spray coating has dried on, the plants are inoculated with an aqueous conidia suspension of the causative organism of apple scab Venturia inaequalis and then remain in an incubation cabin at approximately 20° C. and 100% relative atmospheric humidity for 1 day.
# The plants are then placed in a greenhouse at approximately 21° C. and a relative atmospheric humidity of approximately 90%.
# Evaluation is carried out 12 days after the inoculation. 0% means an efficacy which corresponds to that of the control, whereas an efficacy of 100% means that no infection is observed.
# [4] = logP determination by HPLC (EEC Directive 79/831 Annex V. A8); assay type: physicochemical; conditions: HPLC gradient method, acetonitrile/0.1% aqueous phosphoric acid
# Protocol: The logP values are determined in accordance with EEC Directive 79/831 Annex V. A8 by HPLC (gradient method, acetonitrile/0.1% aqueous phosphoric acid).
# [5] = tested on: Puccinia recondita; experiment: Puccinia test (wheat)/protective; assay type: in vivo; conditions: Puccinia recondita, 240 h, protective, application rate 250 g/ha, evaluation 10 days after inoculation, read-out: Efficacy in %
# Protocol: Puccinia Test (Wheat)/Protective
# as §1, §2, §3
# To test for protective activity, young plants are sprayed with the preparation of active compound at the stated application rate. After the spray coating has dried on, the plants are sprayed with a conidia suspension of Puccinia recondita. The plants remain in an incubation cabin at 20° C. and 100% relative atmospheric humidity for 48 hours.
# The plants are then placed in a greenhouse at a temperature of approximately 20° C. and a relative atmospheric humidity of 80% to promote the development of rust pustules.
# as §4
chromatographic logP [4],melting point,SMILES,Efficacy in % [1],pest or weed control at 100 g/ha [2],pest or weed control at 10 g/ha [3],pest or weed control at 250 g/ha [5]
3.5,–,CNC(=O)/C(=N\OCF)c1ccccc1Oc1ncnc(Oc2cccc(Cl)c2C)c1F [Example 4],100%,≥ 98%,≥ 99%,–
2.9,–,CNC(=O)/C(=N\OCF)c1ccccc1Oc1ncnc(Oc2ccccc2OC(F)F)c1F [Example 6],100%,≥ 98%,≥ 99%,≥ 80%
3.7,–,CNC(=O)/C(=N\OCF)c1ccccc1Oc1nc(-c2ccc(C(F)(F)F)cc2)ns1 [Example 19],–,≥ 98%,≥ 99%,≥ 80%
3.2,–,CNC(=O)/C(=N\OCF)c1ccccc1Oc1nc(-c2ccc(OC(F)F)cc2)ns1 [Example 26],–,≥ 98%,≥ 99%,≥ 80%
–,153 to 155 °C,"COC(=O)C(=NOCF)c1ccccc1Oc1ncnc(Oc2ccccc2Cl)c1F [Example 1, methyl {2-[6-(2-chlorophenoxy)-5-fluoropyrimidin-4-yloxy]-phenyl}-fluoromethoxyimino-acetate]",–,≥ 98%,≥ 99%,≥ 80%
3.8,–,CNC(=O)/C(=N\OCF)c1ccccc1Oc1nc(-c2ccc(OC(F)(F)F)cc2)ns1 [Example 22],100%,≥ 98%,≥ 99%,≥ 80%
2.8,–,CNC(=O)/C(=N\OCF)c1ccccc1Oc1ncnc(Oc2ccccc2C#N)c1F [Example 10],100%,≥ 98%,–,≥ 80%
–,128 to 129 °C,"CNC(=O)C(=NOCF)c1ccccc1Oc1ncnc(Oc2ccccc2Cl)c1F [Example 2, 2-{2-[6-(2-chlorophenoxy)-5-fluoropyrimidin-4-yloxy]-phenyl}-2-fluoromethoxyimino-N-methylacetamide]",100%,≥ 98%,≥ 99%,≥ 80%
3.6,–,CNC(=O)/C(=N\OCF)c1ccccc1Oc1nc(-c2cccc(C(F)(F)F)c2)ns1 [Example 28],100%,≥ 98%,≥ 99%,≥ 80%

# Second part, the compound before the results:
SMILES,chromatographic logP [4],melting point,Efficacy in % [1],pest or weed control at 100 g/ha [2],pest or weed control at 10 g/ha [3],pest or weed control at 250 g/ha [5]
CNC(=O)/C(=N\OCF)c1ccccc1Oc1ncnc(Oc2ccccc2C#N)c1F [drawing 102],–,–,100%,–,–,–
CNC(=O)/C(=N\OCF)c1ccccc1Oc1nc(-c2ccc(OC(F)(F)F)cc2)ns1 [drawing 104],–,–,100%,–,–,–
CNC(=O)/C(=N\OCF)c1ccccc1Oc1nc(-c2cccc(C(F)(F)F)c2)ns1 [drawing 103],–,–,100%,–,–,–
CNC(=O)/C(=N\OCF)c1ccccc1Oc1ncnc(Oc2cccc(Cl)c2C)c1F [drawing 99],–,–,100%,–,–,–
CNC(=O)C(NOCF)c1ccccc1Oc1ncnc(Oc2ccccc2[N+](=O)[O-])c1F (stereo not drawn) [drawing 101],–,–,100%,–,–,–
CNC(=O)/C(=N\OCF)c1ccccc1Oc1ncnc(Oc2ccccc2Cl)c1F [drawing 105],–,–,100%,–,–,–
CNC(=O)/C(=N\OCF)c1ccccc1Oc1ncnc(Oc2ccccc2OC(F)F)c1F [drawing 100],–,–,100%,–,–,–
CNC(=O)C(=NOCF)c1ccccc1Oc1ncnc(Oc2ccccc2Cl)c1F [drawing 98],–,–,100%,–,–,–
